Laboratory results: US12138256B2, “Treatment of cardiopulmonary disorders” (Bayer Aktiengesellschaft, priority 2021, dated 2024)
Values joined by “and” are separate entries in the source; they are usually repeats but may differ in a detail not shown here. Equal values may be shown once. Read-outs that look alike come from different tables or passages of the source.

How the values were obtained:
[1] = system: anesthetized PAH minipigs; assay: PAH minipig model: intratracheal application of dry powder formulations and different hydrates (PennCentury insufflator); format: in vivo, Göttingen minipig; settings: for BP (mean) / PAP(mean) / BP % changes vs. prevalues / PAP % changes vs. prevalues: 375 μg/kg i.t.; for BP (mean) / PAP(mean): absolute values; for BP % changes vs. prevalues / PAP % changes vs. prevalues: each animal
Description: After characterization of the effects of comparative example 11 after nebulization of compound solutions, in a further step the effects of crystalline forms of comparative example 11, e.g. sesquihydrate, e.g. example 6e on PAP and BP after inhaled application of different dry powder lactose formulations (table C2.1.8) were studied in anesthetized PAH minipigs.
As reference pure Lactose vehicle was applied in the beginning of each experiment.

[2] = Stability of the crystalline form during micronization (spiral jet mill, XRPD); format: physicochemical
Description: Generally no amorphization even partial nor form conversion should happen during the necessary micronization step.
The corresponding batches (examples 8a-8d) were micronized using a 50 mm spiral jet mill and pressurized nitrogen with the following parameters (see table 16b).
The corresponding batches were micronized using a 100 mm spiral jet mill and pressurized nitrogen with the following parameters (see table 16c).

For O=C(O)c1ccc(CCN(CCc2ccccc2OCc2ccc(-c3ccc(C(F)(F)F)cc3)cc2Cl)[C@H]2CCCc3nc(C(=O)O)ccc32)cc1 [comparative example 11, (5S)-5-{[2-(4-carboxyphenyl)ethyl][2-(2-{[3-chloro-4′-(trifluoromethyl)[biphenyl]-4-yl]methoxy}phenyl)ethyl]amino}-5,6,7,8-tetrahydroquinoline-2-carboxylic acid], the “MED (dry powder)” value ([1]; intratracheal lactose formulation, lower doses not applicable) was < 7.5 µg/kg.

For O=C(O)c1ccc(CCN(CCc2ccccc2OCc2ccc(-c3ccc(C(F)(F)F)cc3)cc2Cl)[C@H]2CCCc3nc(C(=O)O)ccc32)cc1 [example 4, (5S)-{[2-(4-Carboxyphenyl)ethyl][2-(2-{[3-chloro-4′-(trifluoromethyl)biphenyl-4-yl]methoxy}phenyl)-ethyl]amino}-5,6,7,8-tetrahydroquinoline-2-carboxylic acid], the “stability of the form under micronization” value (“stability of the form” below) ([2]; listed as monohydrate I) was “stable under micronization conditions”.

For O=C(O)c1ccc(CCN(CCc2ccccc2OCc2ccc(-c3ccc(C(F)(F)F)cc3)cc2Cl)[C@H]2CCCc3nc(C(=O)O)ccc32)cc1 [example 2, (5S)-{[2-(4-Carboxyphenyl)ethyl][2-(2-{[3-chloro-4′-(trifluoromethyl)biphenyl-4-yl]methoxy}phenyl)-ethyl]amino}-5,6,7,8-tetrahydroquinoline-2-carboxylic acid], the “efficacy with regard to PAP reduction as well as systemic BP reduction” value ([1]; 1.5 mg/4 kg (=375 μg/kg) intratracheally, micronized) was “comparable efficacy”, the “BP (mean)” value ([1]; time 0) was 109 mmHg and 127 mmHg and 136 mmHg and the “PAP(mean)” value ([1]; time 0) was 35.8 mmHg and 38.7 mmHg and 39.7 mmHg. The “BP (mean)” value ([1]; time 10) was 110 mmHg and 126 mmHg and 135 mmHg, the “PAP(mean)” value ([1]; time 10) was 35.8 mmHg and 38.7 mmHg and 37.1 mmHg and the “BP (mean)” value ([1]; time 20) was 117 mmHg and 128 mmHg and 139 mmHg. For the same compound, the “PAP(mean)” value ([1]; time 20) was 38.9 mmHg and 38.2 mmHg and 40.2 mmHg, the “BP (mean)” value ([1]; time 30) was 121 mmHg and 128 mmHg and 139 mmHg and the “PAP(mean)” value ([1]; time 30) was 39.8 mmHg and 38.6 mmHg and 40.0 mmHg. For the same compound, the “BP (mean)” value ([1]; time 40) was 123 mmHg and 127 mmHg and 137 mmHg, the “PAP(mean)” value ([1]; time 40) was 40.4 mmHg and 39.0 mmHg and 40.7 mmHg and the “BP (mean)” value ([1]; time 50) was 120 mmHg and 127 mmHg and 135 mmHg. The “PAP(mean)” value ([1]; time 50) was 39.7 mmHg and 39.2 mmHg and 40.2 mmHg, the “BP % changes vs. prevalues” ([1]; time 50) was 99.1% and 100.1% and 100.0% and the “PAP % changes vs. prevalues” ([1]; time 50) was 99.1% and 99.2% and 98.5%. The “BP (mean)” value ([1]; time 60) was 121 mmHg and 127 mmHg and 136 mmHg, the “PAP(mean)” value ([1]; time 60) was 39.9 mmHg and 39.2 mmHg and 40.8 mmHg and the “BP % changes vs. prevalues” ([1]; time 60) was 99.9% and 100.1% and 100.7%. For the same compound, the “PAP % changes vs. prevalues” ([1]; time 60) was 99.7% and 99.3% and 99.8%, the “BP (mean)” value ([1]; time 70) was 124 mmHg and 126 mmHg and 137 mmHg and the “PAP(mean)” value ([1]; time 70) was 39.1 mmHg and 36.0 mmHg and 37.2 mmHg. For the same compound, the “BP % changes vs. prevalues” ([1]; time 70) was 102.4% and 99.3% and 101.4%, the “PAP % changes vs. prevalues” ([1]; time 70) was 97.7% and 91.1% and 91.0% and the “BP (mean)” value ([1]; time 80) was 123 mmHg and 124 mmHg and 135 mmHg. The “PAP(mean)” value ([1]; time 80) was 39.1 mmHg and 36.1 mmHg and 35.9 mmHg, the “BP % changes vs. prevalues” ([1]; time 80) was 101.6% and 97.7% and 100.0% and the “PAP % changes vs. prevalues” ([1]; time 80) was 97.7% and 91.3% and 88.0%. The “BP (mean)” value ([1]; time 90) was 122 mmHg and 125 mmHg and 134 mmHg, the “PAP(mean)” value ([1]; time 90) was 37.9 mmHg and 35.2 mmHg and 34.5 mmHg and the “BP % changes vs. prevalues” ([1]; time 90) was 100.7% and 98.5% and 99.2%. The “PAP % changes vs. prevalues” ([1]; time 90) was 94.7% and 89.1% and 84.5%, the “BP (mean)” value ([1]; time 100) was 122 mmHg and 124 mmHg and 132 mmHg and the “PAP(mean)” value ([1]; time 100) was 36.8 mmHg and 33.2 mmHg and 32.7 mmHg. The “BP % changes vs. prevalues” ([1]; time 100) was 100.7% and 97.7% (2×), the “PAP % changes vs. prevalues” ([1]; time 100) was 91.8% and 84.0% and 80.0% and the “BP (mean)” value ([1]; time 110) was 122 mmHg and 125 mmHg and 133 mmHg. For the same compound, the “PAP(mean)” value ([1]; time 110) was 35.5 mmHg and 31.9 mmHg and 31.2 mmHg, the “BP % changes vs. prevalues” ([1]; time 110) was 100.7% and 98.5% (2×) and the “PAP % changes vs. prevalues” ([1]; time 110) was 88.8% and 80.9% and 76.3%. For the same compound, the “BP (mean)” value ([1]; time 120) was 121 mmHg and 125 mmHg and 132 mmHg, the “PAP(mean)” value ([1]; time 120) was 34.8 mmHg and 30.2 mmHg and 29.8 mmHg and the “BP % changes vs. prevalues” ([1]; time 120) was 99.9% and 98.5% and 97.7%. The “PAP % changes vs. prevalues” ([1]; time 120) was 87.0% and 76.6% and 73.0%, the “BP (mean)” value ([1]; time 130) was 120 mmHg and 124 mmHg and 131 mmHg and the “PAP(mean)” value ([1]; time 130) was 34.2 mmHg and 29.7 mmHg and 29.3 mmHg. For the same compound, the “BP % changes vs. prevalues” ([1]; time 130) was 99.1% and 97.7% and 97.0%, the “PAP % changes vs. prevalues” ([1]; time 130) was 85.5% and 75.2% and 71.7% and the “BP (mean)” value ([1]; time 140) was 119 mmHg and 125 mmHg and 131 mmHg. The “PAP(mean)” value ([1]; time 140) was 34.3 mmHg and 29.3 mmHg and 28.6 mmHg, the “BP % changes vs. prevalues” ([1]; time 140) was 98.3% and 98.5% and 97.0% and the “PAP % changes vs. prevalues” ([1]; time 140) was 85.6% and 74.3% and 70.0%. The “BP (mean)” value ([1]; time 150) was 117 mmHg and 124 mmHg and 130 mmHg, the “PAP(mean)” value ([1]; time 150) was 33.7 mmHg and 28.4 mmHg and the “BP % changes vs. prevalues” ([1]; time 150) was 96.6% and 97.7% and 96.3%. For the same compound, the “PAP % changes vs. prevalues” ([1]; time 150) was 84.1% and 71.9% and 69.4%, the “BP (mean)” value ([1]; time 160) was 117 mmHg and the “BP % changes vs. prevalues” ([1]; time 160) was 96.6% and 95.3% and 96.3%. For the same compound, the “PAP % changes vs. prevalues” ([1]; time 160) was 84.1% and 70.4% and 68.1%, the “BP % changes vs. prevalues” ([1]; time 170) was 95.8% and 94.5% and 95.5% and the “PAP % changes vs. prevalues” ([1]; time 170) was 83.8% and 69.8% and 68.5%. The “BP % changes vs. prevalues” ([1]; time 180) was 94.1% and 92.2% and 97.7%, the “PAP % changes vs. prevalues” ([1]; time 180) was 83.8% and 68.7% and 68.9% and the “BP % changes vs. prevalues” ([1]; time 190) was 92.5% and 91.4% and 98.5%. The “PAP % changes vs. prevalues” ([1]; time 190) was 83.9% and 67.7% and 69.3%, the “BP % changes vs. prevalues” ([1]; time 200) was 90.0% and 90.6% and 97.0% and the “PAP % changes vs. prevalues” ([1]; time 200) was 83.7% and 67.9% and 68.5%. For the same compound, the “BP % changes vs. prevalues” ([1]; time 210) was 90.8%, the “PAP % changes vs. prevalues” ([1]; time 210) was 83.4% and 66.5% and 67.7% and the “BP (mean)” value ([1]; time −10) was 116 mmHg and 126 mmHg and 139 mmHg. The “PAP(mean)” value ([1]; time −10) was 37.9 mmHg and 37.8 mmHg and 39.4 mmHg, the “stability of the form” value [2] was “monohydrate II with partial amorphization” and the “stability of the form” value ([2]; listed as monohydrate II) was “partial amorphization occurred under several conditions”.
